According to PMC11472313, “Development of Fragment-Based Inhibitors of the Bacterial Deacetylase LpxC with Low Nanomolar Activity” (Journal of Medicinal Chemistry, 2024):
Converted amounts (≈) assume the structure as drawn.

Key:
[1] = test system: P. aeruginosa LpxC (PaLpxC); details: cited from earlier work
[2] = test system: E. coli D22; assay: disc diffusion assay; format: cell-based; details: 0.15 μmol per 6 mm disc
Protocol: (§1) Besides measuring the inhibitory activities toward E. coli LpxC C63A, the antibacterial activities of the synthesized hydroxamic acids were evaluated by determining their minimal inhibitory concentrations (MIC) in broth dilution tests as well as by performing disc diffusion assays (Table 1).
(§2) The disc diffusion assays against E. coli BL21(DE3) and the defective strain E. coli D22 were performed as follows: liquid cultures of the bacteria were grown overnight in lysogeny broth (LB)[73] at 37 °C and 200 rpm. 150 μL of an overnight cell suspension was spread evenly onto LB agar plates. 0.15 μmol of each compound (dissolved in 10 or 15 μL DMSO) were applied onto circular filter paper (Ø = 6 mm, Cytiva). Pure DMSO, serving as a negative control, and CHIR-090, serving as a positive control, were also spotted. The agar plates were incubated overnight at 37 °C, and the diameter of the zone of growth inhibition was measured for each compound. Each assay was performed at least three times on separate days.

[3] = test system: E. coli BL21(DE3); assay: disc diffusion assay; format: cell-based; details: 0.15 μmol per 6 mm disc
Protocol: as §1, §2

[4] = biological target: T1, E. coli LpxC C63A (Escherichia coli, UniProt P0A725, C63A); assay: fluorescence-based E. coli LpxC C63A enzyme inhibition assay; format: biochemical; details: Ki E. coli LpxC C63A, from IC50 via Cheng–Prusoff
T1 construct: made in house; host or cells: E. coli BL21(DE3)
T1 sequence (P0A725 whole entry C63A): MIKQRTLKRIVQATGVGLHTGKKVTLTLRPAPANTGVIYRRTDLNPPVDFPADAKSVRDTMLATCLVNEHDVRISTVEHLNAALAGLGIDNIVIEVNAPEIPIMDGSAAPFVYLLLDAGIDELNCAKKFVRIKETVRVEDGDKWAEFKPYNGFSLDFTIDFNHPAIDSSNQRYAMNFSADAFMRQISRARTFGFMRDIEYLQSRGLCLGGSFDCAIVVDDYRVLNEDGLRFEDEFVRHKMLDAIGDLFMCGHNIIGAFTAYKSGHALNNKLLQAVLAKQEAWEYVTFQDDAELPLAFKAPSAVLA
Protocol: In order to determine the inhibitory activities of the compounds of interest toward E. coli LpxC, a fluorescence-based enzyme assay was deployed, in which the formed deacetylated natural product UDP-3-O-[(R)-3-hydroxymyristoyl]glucosamine (2) is transformed into a fluorescent isoindole with o-phthaldialdehyde and 2-mercaptoethanol.[48],[49] […] The KM of E. coli LpxC C63A was determined experimentally using a mass spectrometry-based LpxC assay (Figure S8, Supporting Information, vide infra).
A fluorescence-based microplate assay for LpxC activity was performed as described by Clements et al.[48] The wells in a black, nonbinding, 96-well fluorescence microplate (Greiner Bio One, Frickenhausen) were filled with 93 μL of 26.9 μM UDP-3-O-[(R)-3-hydroxymyristoyl]-N-acetylglucosamine in assay buffer [40 mM sodium morpholinoethanesulfonic acid (pH 6.0), 80 μM dithiothreitol, 0.02% Brij 35]. In order to assay the inhibitors at final concentrations from 20 nM up to 20 μM, 2 μL of a respective dilution of the compounds in DMSO were added. The addition of 5 μL of a solution of purified LpxC (10 μg mL^–1) in assay buffer led to final concentrations of 25 μM UDP-3-O-[(R)-3-hydroxymyristoyl]-N-acetylglucosamine, 15 nM E. coli LpxC C63A, 2% DMSO, and from 20 nM up to 20 μM inhibitor. The microplate was incubated for 30 min at 37 °C in a plate shaker. Then, the biochemical reaction was stopped by adding 40 μL of 0.625 M sodium hydroxide. The reaction mixture was further incubated for 10 min and neutralized by adding 40 μL of 0.625 M acetic acid. The deacetylated product UDP-3-O-[(R)-3-hydroxymyristoyl]glucosamine was converted into a fluorescing isoindole by adding 120 μL of an o-phthaldialdehyde-2-mercaptoethanol solution, which was prepared by dissolving 10 mg of o-phthaldialdehyde in 1 mL of methanol, diluting the mixture with 24 mL of a sodium borate buffer (0.1 M), and finally adding 2.5 μL of 2-mercaptoethanol.[49] Fluorescence was measured with a TriStar^2 S LB 942 plate reader (Berthold, Bad Wildbad) at 340 nm excitation and 460 nm emission wavelengths. Each assay was performed at least three times on separate days. The IC50 values were calculated via Probit-log concentration graphs with the aid of the software Origin and were subsequently converted into Ki values using the Cheng–Prusoff equation.[75],[76]

[5] = test system: E. coli D22; assay: MIC, broth microdilution; format: cell-based; details: Escherichia coli, 20 h, 37 °C, LB
Protocol: as §1
(§3) The MIC values of the compounds were determined by means of the microdilution method using 96-well plates.
(§4) The overnight suspension was diluted 1:1000 in fresh LB. 10 μL of a 2-fold dilution series of the compounds in DMSO and 90 μL of LB were dispensed to each well of a 96-well plate. Then, 100 μL of the inoculated medium was added, resulting in 5 × 10^5 cfu mL^–1, 5% DMSO, and a final concentration range of the test compounds between 64 and 0.016 μg mL^–1. The plates were incubated for 20 h at 37 °C. The MIC was defined as the lowest concentration of the compounds that prevented visible growth after incubation. Each assay was performed at least three times on separate days.

[6] = test system: E. coli BL21(DE3); assay: MIC, broth microdilution; format: cell-based; details: Escherichia coli, 20 h, 37 °C, LB
Protocol: as §1, §3, §4

[7] = biological target: T2, P. aeruginosa LpxC (Pseudomonas aeruginosa, UniProt P47205); assay: LC–MS/MS-based P. aeruginosa LpxC enzyme inhibition assay; format: biochemical; details: from IC50 via Cheng–Prusoff
T2 construct: made in house; host or cells: E. coli BL21(DE3)
T2 sequence (P47205 whole entry): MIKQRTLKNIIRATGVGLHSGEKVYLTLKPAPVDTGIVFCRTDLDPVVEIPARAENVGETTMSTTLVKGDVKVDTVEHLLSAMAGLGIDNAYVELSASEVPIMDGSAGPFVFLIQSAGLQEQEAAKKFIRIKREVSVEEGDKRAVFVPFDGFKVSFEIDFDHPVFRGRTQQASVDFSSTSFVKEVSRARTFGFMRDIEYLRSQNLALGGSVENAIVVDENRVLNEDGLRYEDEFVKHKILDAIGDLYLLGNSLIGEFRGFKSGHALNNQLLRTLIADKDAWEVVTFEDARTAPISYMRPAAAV
From the text: As Pseudomonas aeruginosa is one of the so-called ESKAPE pathogens,[56] being the leading cause of nosocomial infections throughout the world, and carbapenem-resistant P. aeruginosa strains were assigned the highest priority (priority 1: critical) within the “WHO priority pathogens list for R&D of new antibiotics” (WHO 2017),[57] new antibacterial agents combating these bacteria are urgently required. Thus, our newly developed LpxC inhibitors should be tested for inhibitory activity toward P. aeruginosa LpxC, which shares 57% sequence identity with E. coli LpxC.[28] Therefore, a liquid chromatography with tandem mass spectrometry (LC–MS/MS)-based P. aeruginosa LpxC assay was established. […] After incubation and subsequent termination of the enzymatic reaction, the samples were subjected to LC–MS/MS analysis. Following the chromatographic separation of substrate 1 and deacetylated product 2, the eluted compounds were ionized and subjected to fragmentation. Three multiple reaction monitoring (MRM) transitions were detected per compound [precursor ions: m/z (substrate 1) 832; m/z (deacetylated product 2) 790; product ions: m/z (product 1) 385, collision energy = −60 V; m/z (product 2) 159, collision energy = −80 V; m/z (product 3) 79, collision energy = −140 V]. The MRM transitions 832 → 79 of substrate 1 and 790 → 79 of product 2 were used as quantifiers; the other mass transitions were used as qualifiers.
The protocol of the LC–MS/MS-based P. aeruginosa LpxC assay was based on the E. coli LpxC C63A enzyme assay. Compared to the fluorescence-based enzyme assay, the substrate was diluted 1:10 and the inhibitors were diluted 1:4.
The wells in a black, nonbinding, 96-well fluorescence microplate (Greiner Bio One, Frickenhausen) were filled with 93 μL of 2.69 μM UDP-3-O-[(R)-3-hydroxymyristoyl]-N-acetylglucosamine in assay buffer [50 mM KH2PO4/K2HPO4 (pH = 7.5), 80 μM dithiothreitol, 0.02% Brij 35]. In order to assay the inhibitors at final concentrations from 5 nM up to 5 μM, 2 μL of a respective dilution of the compounds in DMSO were added. The addition of 5 μL of a solution of purified P. aeruginosa LpxC (5 μg mL^–1) in assay buffer led to final concentrations of 2.5 μM UDP-3-O-[(R)-3-hydroxymyristoyl]-N-acetylglucosamine, 7.5 nM P. aeruginosa LpxC, 2% DMSO, and from 5 nM up to 5 μM inhibitor. The microplate was incubated for 30 min at 37 °C in a plate shaker. Then, the biochemical reaction was stopped by adding 40 μL of 0.625 M hydrochloric acid. The reaction mixtures were further incubated for 10 min, sealed, and stored at −80 °C until analysis.
LC–MS/MS-Analysis. The reaction mixtures were separated by ultrahigh performance liquid-chromatography (1290 II Infinity UHPLC, Agilent Technologies), and the eluted compounds were analyzed by mass spectrometry using electrospray ionization in negative ion mode with a triple quadrupole linear ion trap mass spectrometer (QTRAP 5500, AB Sciex LLC).
To analyze the eluted compounds by mass spectrometry, a MRM method was applied. The specific parameters of this method are given in Table S2 (Supporting Information). After detection and selection of the precursor ions (1: m/z 832; 2: m/z 790), both analytes were fragmented, leading to three identical product ions [m/z (product 1) 385, collision energy = −60 V; m/z (product 2) 159, collision energy = −80 V; m/z (product 3) 79, collision energy = −140 V]. The mass transitions 832 → 79 (substrate 1) and 790 → 79 (product 2) were used as quantifiers; the other mass transitions were used as qualifiers. The ratio between substrate 1 and product 2 was quantified by comparing the peak areas of the quantifiers. The percentual inhibition caused by each inhibitor concentration was determined with respect to the amount of the product formed in the noninhibited reaction after 30 min.
Each assay was performed at least two times on separate days. […]

[8] = test system: P. aeruginosa ATCC 27853; assay: disc diffusion assay; format: cell-based; details: 0.15 μmol per 6 mm disc
Protocol: (§5) In the performed disc diffusion assays, indole derivatives (S)-13h, (S)-13i, and (S)-13j caused promising halos of growth inhibition.
(§6) The disc diffusion assays against E. coli TOP10 (Thermo Fisher, Waltham, USA), E. coli ATCC 35218, K. pneumoniae ATCC 700603, and P. aeruginosa ATCC 27853 were performed as follows: the bacteria were grown overnight on a Columbia blood agar plate (Oxoid, Basingstoke, UK), and one colony was suspended in sterile saline to yield a suspension of 0.5 McFarland standard. Using a sterile swab, the suspension was spread evenly onto Mueller–Hinton agar (Oxoid, Basingstoke, UK). 0.15 μmol of each compound (dissolved in 10 μL DMSO) was applied onto circular 6 mm diameter filter paper disks, which were then placed on the agar. After incubating the agar plates for 20 h at 37 °C, the diameter of the zone of growth inhibition was measured for each compound.

[9] = test system: E. coli TOP10; assay: disc diffusion assay; format: cell-based; details: 0.15 μmol per 6 mm disc
Protocol: as §5, §6

[10] = test system: E. coli ATCC 35218; assay: disc diffusion assay; format: cell-based; details: 0.15 μmol per 6 mm disc
Protocol: as §5, §6

[11] = test system: K. pneumoniae ATCC 700603; assay: disc diffusion assay; format: cell-based, Klebsiella pneumoniae; details: 0.15 μmol per 6 mm disc
Protocol: as §5, §6

[12] = biological target: T3, LasB (Pseudomonas aeruginosa, UniProt Q02RJ6); assay: FRET-based LasB in vitro inhibition assay; format: biochemical, P. aeruginosa PA14
T3 construct: The elastase LasB of P. aeruginosa is a secreted metalloprotease; endogenous in cells; host or cells: P. aeruginosa PA14 culture supernatant
T3 sequence (Q02RJ6 198-498): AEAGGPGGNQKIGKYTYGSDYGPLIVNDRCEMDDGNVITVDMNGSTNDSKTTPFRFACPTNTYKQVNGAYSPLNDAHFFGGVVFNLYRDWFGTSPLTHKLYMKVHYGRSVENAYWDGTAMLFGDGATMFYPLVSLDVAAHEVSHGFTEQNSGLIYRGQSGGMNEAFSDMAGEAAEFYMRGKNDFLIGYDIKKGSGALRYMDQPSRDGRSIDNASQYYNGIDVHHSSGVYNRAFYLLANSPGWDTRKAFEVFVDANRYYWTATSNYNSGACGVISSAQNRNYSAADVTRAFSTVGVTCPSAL
Protocol: Purification of LasB from P. aeruginosa PA14 supernatant and the subsequent performance of the FRET-based in vitro inhibition assay was performed as described previously.[66] The TACE (ADAM-17) inhibitor screening kit was purchased from Sigma-Aldrich (Saint Louis, MO). MMPs 1–3 along with the SensoLyte 520 Generic MMP Activity Kit Fluorimetric were purchased from AnaSpec (Fremont, CA, USA). The assays were performed according to the guidelines of the respective manufacturer. Fluorescence signals were measured using a CLARIOstar plate reader (BMG Labtech, Ortenberg, Germany).

[13] = test system: LpxC–9 complex; assay: NMR-ILOE (interligand NOESY) of fragment hits with LpxC and 9; details: fragment hits binding the LpxC–9 complex by STD and WaterLogsy; 6 μM LpxC
Protocol: In order to find fragments specifically addressing the UDP-binding pocket, which can be linked to the LpxC inhibitors, a fragment screen was performed against LpxC bound to 9. First, 650 fragments in cocktails of five were tested for binding to the LpxC–9 complex using STD-NMR and WaterLogsy experiments. Then, fragment hits identified as potential binders were tested one by one against the LpxC–9 complex by STD-NMR and WaterLogsy experiments performed under identical experimental conditions. A total of 97 fragment hits were identified as binders, leading to a hit rate of 15%.
Then, NMR-ILOE experiments were performed with selected fragment hits in the presence of LpxC and the unsubstituted hydroxamic acid 9. This allowed the identification of fragments that bind in the enzyme’s UDP-binding pocket near the methylene group in the α-position of the inhibitor’s hydroxamate moiety. Weak interligand NOESY peaks were observed between inhibitor 9 and nine fragments. By contrast, no interligand NOESY peaks were observed between compound 9 and the other ten fragments. […] Unexpectedly, we also observed interligand NOESY between the fragment protons and protons of the morpholino moiety.
Standard 1D and STD NMR spectra were acquired at 20 °C with a Bruker 600 MHz NMR spectrometer equipped with a 5 mm cryoprobe. Parameters for the STD experiments (saturation frequency and saturation time) were identical for all samples. […] STD saturation time was 2 s. WaterLOGSY mixing time was 1.5 s. Two NOESY experiments were recorded with mixing times of 0.6 and 0.3 s. STD and WaterLOGSY spectra were recorded with the same NMR tubes containing 3 μM LpxC, compound 9 at 500 μM, and fragments at 500 μM. For NOESY experiments, NMR tubes contained 6 μM LpxC.
Temperature was set to 293 K for all NMR experiments.

SMILES | Inhibition zone E. coli D22 [2] [mm] | Inhibition zone E. coli BL21(DE3) [3] [mm] | Ki [4] [nM] | MIC [5] [µg/mL] | MIC [6] [µg/mL] | Inter-Ligand NOESY peaks between the fragment and 9 [13] | other results
C[C@@](CO)(OCc1ccc(-c2ccccc2)cc1)C(=O)NO [5a] | – | – | – | – | – | – | IC50 [1]: 22 nM
O=C(NC[C@@H](OCc1ccc(C#Cc2ccc(CN3CCOCC3)cc2)cc1)C(=O)NO)c1c[nH]c2ccccc12 [(R)-13h] | 13.3 ± 1.0 | ≤6 | 1580 ± 216 | 4 (≈ 7.24 µM) | > 16 | – | Ki [7]: 631 ± 198 nM
O=C(NC[C@H](OCc1ccc(C#Cc2ccc(CN3CCOCC3)cc2)cc1)C(=O)NO)c1ccc(-c2ccccc2)cc1 [(S)-13b] | 11.2 ± 2.9 | ≤6 | > 2540 | 0.13 (≈ 0.22 µM) | > 16 | – | Inhibition zone P. aeruginosa ATCC 27853 [8]: <6 mm; Inhibition zone E. coli TOP 10 [9]: <6 mm; Inhibition zone E. coli ATCC 35218 [10]: <6 mm; Inhibition zone K. pneumoniae ATCC 700603 [11]: <6 mm; LasB Inhibition at 20 μM ([12]; 20 μM): little to no inhibitory activity; inhibition at 20 µM ([12]; read-out: LasB Inhibition at 20 μM): < 10%
Cn1c(O)cc2ccccc21 [F13] | – | – | – | – | – | no | –
c1ccc(-c2cc[nH]n2)cc1 [F14] | – | – | – | – | – | yes | –
